Literature values, collected in patent US6436991B1, “Composition and method containing products extracted from Commiphora sp. for prevention and treatment of abnormal cell growth and proliferation in inflammation, neoplasia and cardiovascular disease” (Sabinsa Corporation, priority 2000, dated 2002).

Settings: literature values; read-out: IC50, DPPH radical scavenging (reported, Chen and Ho 1995)

Molecule	IC50 [µM]
O=C(O)c1cc(O)c(O)c(O)c1 [gallic acid]	10.6
catechin	18.6
